What was measured:
[1] = Evaluation of heparin toxicity in Balb/c mice; format: in vivo; conditions: 50 mg/kg and 25 mg/kg subcutaneously, q2dx5
Procedure: 20 6-week-old female Balb/c mice weighing 20 g (Harlan), divided into groups by casual randomisation, were treated with heparin sodium, as a reference, and with the compound according to the present invention called STI514. The treatment schedule was of the q2dx5 type, i.e. 5 total administrations at intervals of 2 days, administering 200 μl/mouse of 50 mg/kg/10 ml and 25 mg/kg/10 ml solutions subcutaneously.
Heparin sodium: the solution is prepared by solubilizing 160 mg of powder in 4 ml of PBS 1× pH 7.4 free of Ca^++-and Mg^++-ions; it is subdivided into aliquots of 243 μl and stored at −20° C. At the time of treatment, the solution is diluted in Ca^++-and Mg^++-free PBS (Dulbecco, modified formula) 1×, pH 7.4 so as to have the substance at final concentrations of 50 mg/kg/10 ml and 25 mg/kg/10 ml.
ST1514: the solution is prepared by solubilizing 160 mg of powder in 4 ml of Ca^++-and Mg^++-free PBS 1×, pH 7.4; it is subdivided into aliquots of 243 μl and stored at −20° C. […]
Full blood count: the appliance (Cell Analyzer 580 A, DELCON) is used according to the standard procedure described in the operating manual. […] This solution is used for the WBC reading. Solution B, on the other hand, is used for the RBC and platelet (PLT) readings. Each sample is read in duplicate.
The data obtained will be analyzed using ANOVA.

[2] = tested on: chick embryo chorioallantoic membrane; experiment: Angiostatic activity on chick embryo chorioallantoic membrane (CAM) model; conditions: in vivo
Procedure: For the study of angiogenesis the model used was the chick embryo chorioallantoic membrane model (Ribatti e al. Int. J. Dev. Biol., 40, 1189 (1996)).
300 embryonated hens' eggs were incubated at 37° C. in constant humidity conditions. On the 3rd day of incubation, after aspirating 2-3 ml of albumen from the acute pole of the egg so as to detach the CAM from the shell, a window was cut with scissors in the shell. The vessels underlying the CAM were thus exposed. The window was closed with a transparent glass panel and the eggs were put back into the incubator. […] The experiments were discontinued on the 12th day of incubation, when an overall assessment of the angiogenic activity of the molecules was carried out, expressed as percentage inhibition in relation to the number of experiments initiated and completed (Table 9). In addition, for compound ST1514, assayed at the concentration of 100 μg/embryo, a macroscopic quantitative evaluation of the angiostatic activity was also carried out according to the technique proposed by Brooks et al. (Science, 264, 569, (1994)), counting the number of vessels surrounding the sponge. […]

[3] = target: T1, FGFR/FGF2/HSPG ternary complex (Homo sapiens, UniProt P09038); experiment: Inhibition of FGF2-mediated intercellular adhesion of CHO-K1 and CHO-745flg cells; format: cell-based, Chinese hamster
T1 construct: expressed in transfected cells; host or cells: CHO 745/flg (HSPG-deficient CHO mutants transfected with FGFR-1); fixed CHO-K1 monolayer supplies HSPGs; FGF-2 added to the medium
Description: To this end an in-vitro model was designed capable of assessing the interference of the various different heparin derivatives with bFGF binding to its own receptor.
These latter cells were stably transfected with cDNA for green fluorescent protein and for this reason could be observed under the fluorescence microscope with a combination of filters for the detection of green emission. In brief, the technique is based on the possibility that the two types of cells may interact (form stable bonds) only if FGF is added to the two cell types. In fact, in this case, the heparan sulphates of the CHO-745flg cells will bind to FGF, which in turn will bind to the CHO-K1 cells, establishing a bridge. The binding that occurs is detectable as a result of the green fluorescence emitted by the CHO-745flg cells.
CHO-K1 cells were seeded at a density of 90,000 cells/cm2 in 24-well plates. After 24 hours the cells were fixed in 3% glutaraldehyde in PBS for 2 hours at 4° C. and washed with 0.1 M glycine/PBS. […] After 2 hours' incubation at 37° C., the adhering cells were counted under the inverted microscope. The results were expressed as percentage of the number of cells adhering compared to those measured in the absence of the test compounds. […]

CAM = conditions: in the presence of corticosteroids; compared with heparin; cited from earlier work

T1 sequence (P09038 143-288, one chain of several): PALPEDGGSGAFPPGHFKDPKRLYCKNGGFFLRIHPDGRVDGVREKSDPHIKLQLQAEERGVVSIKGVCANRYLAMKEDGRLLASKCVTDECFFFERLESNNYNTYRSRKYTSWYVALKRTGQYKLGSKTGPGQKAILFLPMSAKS

heparin sodium
liver characteristics at autopsy [1]: livers with abnormal characteristics

Heparin
Angiostatic activity on CAM model (stated in words) [2]: no activity
Cell-Cell Adh. (ID50, ng/mL), inhibition of FGF2-mediated cell-cell adhesion [3]: 100 ng/mL

2-O-desulfated heparin
antiangiogenic activity as assessed by means of the CAM test (CAM): partly maintained the antiangiogenic activity of heparin
